ChEMBL document CHEMBL3885881, “DrugMatrix”

Species on record: Rattus norvegicus
Assay: DrugMatrix - Regimen: Daily Repeat
Type: toxicity, organism-based, Sprague-Dawley
Design: regimen Daily Repeat, gender Male, age 6-8 weeks
Conditions: in vivo, sc, route subcutaneous, […]; for ABSOLUTE BASOPHIL / ABSOLUTE EOSINOPHIL / ABSOLUTE LYMPHOCYTE / ABSOLUTE MONOCYTE / ABSOLUTE SEGMENTED NEUTROPHIL / BASOPHIL / EOSINOPHIL / ERYTHROCYTE COUNT / HEMATOCRIT / HEMOGLOBIN / LEUKOCYTE COUNT / LYMPHOCYTE / MEAN CORPUSCULAR HEMOGLOBIN / MEAN CORPUSCULAR VOLUME / MONOCYTE / NEUTROPHIL / NUCLEATED RED BLOOD CELLS / PLATELET COUNT: tissue Blood; for ALANINE AMINOTRANSFERASE / ALBUMIN / ALKALINE PHOSPHATASE / ASPARTATE AMINOTRANSFERASE / BLOOD UREA NITROGEN / CARBON DIOXIDE / CHLORIDE / CHOLESTEROL / CREATINE PHOSPHOKINASE / CREATININE / GLUCOSE / LACTATE DEHYDROGENASE / LIPASE / PHOSPHORUS / POTASSIUM / SODIUM / TOTAL BILIRUBIN / TOTAL PROTEIN / URIC ACID: tissue Plasma
[1] = 3 mg/kg, 72 h, dose level Low, time 3 day
[2] = 3 mg/kg, 120 h, dose level Low, time 5 day
[3] = 30 mg/kg, 72 h, dose level M2, time 3 day
[4] = 30 mg/kg, 120 h, dose level M2, time 5 day

Which results are given for `CC(C)(C)CC(C)(C)c1ccc(OCCOCC[N+](C)(C)Cc2ccccc2)cc1.[Cl-]` [BENZETHONIUM CHLORIDE]?
ABSOLUTE BASOPHIL [1]: 0 CELLS/uL; ABSOLUTE EOSINOPHIL [1]: 41 CELLS/uL; ABSOLUTE LYMPHOCYTE [1]: 15440.33 CELLS/uL; ABSOLUTE MONOCYTE [1]: 415 CELLS/uL; ABSOLUTE SEGMENTED NEUTROPHIL [1]: 1437 CELLS/uL; BASOPHIL [1]: 0%; EOSINOPHIL [1]: 0.33%; ERYTHROCYTE COUNT [1]: 5.3 x10E6/uL; HEMATOCRIT [1]: 33.43%; HEMOGLOBIN [1]: 12.63 G/DL; LEUKOCYTE COUNT [1]: 17.33 x10E3/uL; LYMPHOCYTE [1]: 89.33%; MEAN CORPUSCULAR HEMOGLOBIN [1]: 23.87 pg; MEAN CORPUSCULAR VOLUME [1]: 63.13 fL; MONOCYTE [1]: 2.33%; NEUTROPHIL [1]: 8%; NUCLEATED RED BLOOD CELLS [1]: 0 /100WBC; PLATELET COUNT [1]: 1329.67 x10E3/uL; ALANINE AMINOTRANSFERASE [1]: 45 u/L; ALBUMIN [1]: 3.7 G/DL; ALKALINE PHOSPHATASE [1]: 323.67 u/L; ASPARTATE AMINOTRANSFERASE [1]: 74 u/L; BLOOD UREA NITROGEN [1]: 15.67 mg/dL; CARBON DIOXIDE [1]: 28 mmol/L; CHLORIDE [1]: 101 MEQ/L; CHOLESTEROL [1]: 83.33 mg/dL; CREATINE PHOSPHOKINASE [1]: 130.67 u/L; CREATININE [1]: 0.18 mg/dL; GLUCOSE [1]: 149.33 mg/dL; LACTATE DEHYDROGENASE [1]: 78.67 u/L; LIPASE [1]: 8.67 u/L; PHOSPHORUS [1]: 11.23 mg/dL; POTASSIUM [1]: 6.78 MEQ/L; SODIUM [1]: 142.67 MEQ/L; TOTAL BILIRUBIN [1]: 0.23 mg/dL; TOTAL PROTEIN [1]: 5.93 G/DL; URIC ACID [1]: 1.53 mg/dL; ABSOLUTE BASOPHIL [2]: 0 CELLS/uL; ABSOLUTE EOSINOPHIL [2]: 149.33 CELLS/uL; ABSOLUTE LYMPHOCYTE [2]: 16956.67 CELLS/uL; ABSOLUTE MONOCYTE [2]: 380.67 CELLS/uL; ABSOLUTE SEGMENTED NEUTROPHIL [2]: 2446.67 CELLS/uL; BASOPHIL [2]: 0%; EOSINOPHIL [2]: 0.67%; ERYTHROCYTE COUNT [2]: 5.5 x10E6/uL; HEMATOCRIT [2]: 34.13%; HEMOGLOBIN [2]: 12.67 G/DL; LEUKOCYTE COUNT [2]: 19.93 x10E3/uL; LYMPHOCYTE [2]: 85.33%; MEAN CORPUSCULAR HEMOGLOBIN [2]: 23 pg; MEAN CORPUSCULAR VOLUME [2]: 62.03 fL; MONOCYTE [2]: 2%; NEUTROPHIL [2]: 12%; NUCLEATED RED BLOOD CELLS [2]: 0 /100WBC; PLATELET COUNT [2]: 1520.67 x10E3/uL; ALANINE AMINOTRANSFERASE [2]: 63 u/L; ALBUMIN [2]: 3.47 G/DL; ALKALINE PHOSPHATASE [2]: 275 u/L; ASPARTATE AMINOTRANSFERASE [2]: 71.67 u/L; BLOOD UREA NITROGEN [2]: 14.67 mg/dL; CARBON DIOXIDE [2]: 27.33 mmol/L; CHLORIDE [2]: 103 MEQ/L; CHOLESTEROL [2]: 70.67 mg/dL; CREATINE PHOSPHOKINASE [2]: 560.33 u/L; CREATININE [2]: 0.23 mg/dL; GLUCOSE [2]: 152.67 mg/dL; LACTATE DEHYDROGENASE [2]: 156.67 u/L; LIPASE [2]: 10 u/L; PHOSPHORUS [2]: 11.23 mg/dL; POTASSIUM [2]: 7.21 MEQ/L; SODIUM [2]: 144.55 MEQ/L; TOTAL BILIRUBIN [2]: 0.17 mg/dL; TOTAL PROTEIN [2]: 5.73 G/DL; URIC ACID [2]: 1.53 mg/dL; ABSOLUTE BASOPHIL [3]: 0 CELLS/uL; ABSOLUTE EOSINOPHIL [3]: 0 CELLS/uL; ABSOLUTE LYMPHOCYTE [3]: 10787.33 CELLS/uL; ABSOLUTE MONOCYTE [3]: 579.67 CELLS/uL; ABSOLUTE SEGMENTED NEUTROPHIL [3]: 1766.33 CELLS/uL; BASOPHIL [3]: 0%; EOSINOPHIL [3]: 0%; ERYTHROCYTE COUNT [3]: 5.13 x10E6/uL; HEMATOCRIT [3]: 31.77%; HEMOGLOBIN [3]: 11.87 G/DL; LEUKOCYTE COUNT [3]: 13.13 x10E3/uL; LYMPHOCYTE [3]: 83%; MEAN CORPUSCULAR HEMOGLOBIN [3]: 23.13 pg; MEAN CORPUSCULAR VOLUME [3]: 61.93 fL; MONOCYTE [3]: 4.33%; NEUTROPHIL [3]: 12.67%; NUCLEATED RED BLOOD CELLS [3]: 0 /100WBC; PLATELET COUNT [3]: 981 x10E3/uL; ALANINE AMINOTRANSFERASE [3]: 24.33 u/L; ALBUMIN [3]: 2.63 G/DL; ALKALINE PHOSPHATASE [3]: 269 u/L; ASPARTATE AMINOTRANSFERASE [3]: 71.67 u/L; BLOOD UREA NITROGEN [3]: 15.33 mg/dL; CARBON DIOXIDE [3]: 21.67 mmol/L; CHLORIDE [3]: 101 MEQ/L; CHOLESTEROL [3]: 45 mg/dL; CREATINE PHOSPHOKINASE [3]: 122.67 u/L; CREATININE [3]: 0.15 mg/dL; GLUCOSE [3]: 140.67 mg/dL; LACTATE DEHYDROGENASE [3]: 116.67 u/L; LIPASE [3]: 7 u/L; PHOSPHORUS [3]: 11.27 mg/dL; POTASSIUM [3]: 5.61 MEQ/L; SODIUM [3]: 142.5 MEQ/L; TOTAL BILIRUBIN [3]: 0.1 mg/dL; TOTAL PROTEIN [3]: 5.93 G/DL; URIC ACID [3]: 2.4 mg/dL; ABSOLUTE BASOPHIL [4]: 0 CELLS/uL; ABSOLUTE EOSINOPHIL [4]: 0 CELLS/uL; ABSOLUTE LYMPHOCYTE [4]: 12245 CELLS/uL; ABSOLUTE MONOCYTE [4]: 1299.67 CELLS/uL; ABSOLUTE SEGMENTED NEUTROPHIL [4]: 8588.67 CELLS/uL; BASOPHIL [4]: 0%; EOSINOPHIL [4]: 0%; ERYTHROCYTE COUNT [4]: 4.82 x10E6/uL; HEMATOCRIT [4]: 29.43%; HEMOGLOBIN [4]: 11.43 G/DL; LEUKOCYTE COUNT [4]: 22.13 x10E3/uL; LYMPHOCYTE [4]: 55%; MEAN CORPUSCULAR HEMOGLOBIN [4]: 23.73 pg; MEAN CORPUSCULAR VOLUME [4]: 61.07 fL; MONOCYTE [4]: 6%; NEUTROPHIL [4]: 39%; NUCLEATED RED BLOOD CELLS [4]: 0 /100WBC; PLATELET COUNT [4]: 1372 x10E3/uL; ALANINE AMINOTRANSFERASE [4]: 31.67 u/L; ALBUMIN [4]: 2.27 G/DL; ALKALINE PHOSPHATASE [4]: 363.33 u/L; ASPARTATE AMINOTRANSFERASE [4]: 89.33 u/L; BLOOD UREA NITROGEN [4]: 11.67 mg/dL; CARBON DIOXIDE [4]: 29.33 mmol/L; CHLORIDE [4]: 101.67 MEQ/L; CHOLESTEROL [4]: 41.33 mg/dL; CREATINE PHOSPHOKINASE [4]: 166.67 u/L; CREATININE [4]: 0.11 mg/dL; GLUCOSE [4]: 117.33 mg/dL; LACTATE DEHYDROGENASE [4]: 105.33 u/L; LIPASE [4]: 7 u/L; PHOSPHORUS [4]: 10.93 mg/dL; POTASSIUM [4]: 6.02 MEQ/L; SODIUM [4]: 143.77 MEQ/L; TOTAL BILIRUBIN [4]: 0.1 mg/dL; TOTAL PROTEIN [4]: 5.3 G/DL; URIC ACID [4]: 1.83 mg/dL
